Results from ChEMBL document CHEMBL1909046, “DrugMatrix in vitro pharmacology data”.

Experiments:
[1] = target: T1, Muscarinic acetylcholine receptor M5 (Homo sapiens, UniProt P08912); type: cell membranes, CHO-K1, Membrane; conditions: cho-k1; further: in other assays of this panel Not Active means under 50% inhibition at 10 µM
T1 sequence (P08912 whole entry): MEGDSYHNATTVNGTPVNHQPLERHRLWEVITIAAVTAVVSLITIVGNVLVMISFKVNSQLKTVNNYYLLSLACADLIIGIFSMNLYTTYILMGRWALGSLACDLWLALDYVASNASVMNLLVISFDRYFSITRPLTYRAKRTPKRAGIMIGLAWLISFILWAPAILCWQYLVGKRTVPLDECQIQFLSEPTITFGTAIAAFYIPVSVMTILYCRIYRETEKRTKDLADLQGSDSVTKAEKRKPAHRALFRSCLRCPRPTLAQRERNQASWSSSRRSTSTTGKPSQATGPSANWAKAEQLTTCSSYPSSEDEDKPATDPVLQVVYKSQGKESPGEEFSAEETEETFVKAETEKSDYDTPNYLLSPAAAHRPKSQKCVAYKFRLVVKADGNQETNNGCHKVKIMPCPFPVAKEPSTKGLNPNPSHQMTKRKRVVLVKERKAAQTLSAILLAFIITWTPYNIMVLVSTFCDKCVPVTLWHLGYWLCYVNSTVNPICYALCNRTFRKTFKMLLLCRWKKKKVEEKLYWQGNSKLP

Mu-type opioid receptor = Mu-type opioid receptor (Homo sapiens, UniProt P35372); assay: DRUGMATRIX: Opiate mu (OP3, MOP) radioligand binding (ligand: [3H] Diprenorphine); type: cell membranes, CHO-K1, Membrane; conditions: cho-k1; Not Active = under 50% inhibition at 10 µM
Sequence of Mu-type opioid receptor (P35372 whole entry): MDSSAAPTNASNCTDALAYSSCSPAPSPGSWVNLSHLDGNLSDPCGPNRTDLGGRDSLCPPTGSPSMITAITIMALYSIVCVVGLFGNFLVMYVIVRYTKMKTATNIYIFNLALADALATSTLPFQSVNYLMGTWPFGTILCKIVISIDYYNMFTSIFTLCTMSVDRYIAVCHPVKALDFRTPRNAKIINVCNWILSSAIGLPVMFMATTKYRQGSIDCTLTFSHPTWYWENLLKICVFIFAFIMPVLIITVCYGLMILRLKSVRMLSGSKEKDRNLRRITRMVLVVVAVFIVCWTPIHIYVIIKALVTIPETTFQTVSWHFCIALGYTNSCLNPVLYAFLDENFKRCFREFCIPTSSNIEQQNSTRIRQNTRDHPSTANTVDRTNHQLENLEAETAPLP

Melanocortin receptor 4 = Melanocortin receptor 4 (Homo sapiens, UniProt P32245); type: cell membranes, Membrane; conditions: hek293; further: in other assays of this panel Not Active means under 50% inhibition at 10 µM
Sequence of Melanocortin receptor 4 (P32245 whole entry): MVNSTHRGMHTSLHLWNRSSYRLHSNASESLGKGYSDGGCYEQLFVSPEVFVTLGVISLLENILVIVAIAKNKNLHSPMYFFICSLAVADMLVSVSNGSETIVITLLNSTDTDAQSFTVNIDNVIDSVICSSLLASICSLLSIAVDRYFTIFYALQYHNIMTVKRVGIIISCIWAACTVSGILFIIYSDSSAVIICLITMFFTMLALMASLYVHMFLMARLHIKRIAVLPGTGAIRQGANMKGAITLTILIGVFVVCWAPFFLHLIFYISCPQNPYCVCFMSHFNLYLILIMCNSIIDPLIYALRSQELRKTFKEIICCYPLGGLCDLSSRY

Insulin receptor = Insulin receptor (Rattus norvegicus, UniProt P15127); type: cell membranes, Wistar, Liver, Membrane; further: in other assays of this panel Not Active means under 50% inhibition at 10 µM
Sequence of Insulin receptor (P15127 27-759 limits assumed): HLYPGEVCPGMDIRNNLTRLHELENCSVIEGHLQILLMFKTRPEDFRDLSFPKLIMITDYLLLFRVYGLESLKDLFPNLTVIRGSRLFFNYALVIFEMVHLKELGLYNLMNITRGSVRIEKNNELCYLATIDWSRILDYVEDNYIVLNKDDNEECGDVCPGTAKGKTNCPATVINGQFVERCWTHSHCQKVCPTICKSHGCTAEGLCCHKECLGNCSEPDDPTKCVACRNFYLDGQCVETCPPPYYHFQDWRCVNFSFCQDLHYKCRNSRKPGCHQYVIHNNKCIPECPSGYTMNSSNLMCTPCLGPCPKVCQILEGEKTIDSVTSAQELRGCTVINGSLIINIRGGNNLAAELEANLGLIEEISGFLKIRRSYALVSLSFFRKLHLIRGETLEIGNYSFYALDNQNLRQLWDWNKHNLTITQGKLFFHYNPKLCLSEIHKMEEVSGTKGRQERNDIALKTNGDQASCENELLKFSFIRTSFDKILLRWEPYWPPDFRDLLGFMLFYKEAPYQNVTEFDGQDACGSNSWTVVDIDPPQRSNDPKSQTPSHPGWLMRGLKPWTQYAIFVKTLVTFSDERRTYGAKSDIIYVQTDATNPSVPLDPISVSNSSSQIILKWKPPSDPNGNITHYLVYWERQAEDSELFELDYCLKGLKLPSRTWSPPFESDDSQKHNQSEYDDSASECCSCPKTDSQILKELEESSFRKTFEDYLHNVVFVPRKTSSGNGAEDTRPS
Sequence of Insulin receptor (P15127 764-1383 limits assumed): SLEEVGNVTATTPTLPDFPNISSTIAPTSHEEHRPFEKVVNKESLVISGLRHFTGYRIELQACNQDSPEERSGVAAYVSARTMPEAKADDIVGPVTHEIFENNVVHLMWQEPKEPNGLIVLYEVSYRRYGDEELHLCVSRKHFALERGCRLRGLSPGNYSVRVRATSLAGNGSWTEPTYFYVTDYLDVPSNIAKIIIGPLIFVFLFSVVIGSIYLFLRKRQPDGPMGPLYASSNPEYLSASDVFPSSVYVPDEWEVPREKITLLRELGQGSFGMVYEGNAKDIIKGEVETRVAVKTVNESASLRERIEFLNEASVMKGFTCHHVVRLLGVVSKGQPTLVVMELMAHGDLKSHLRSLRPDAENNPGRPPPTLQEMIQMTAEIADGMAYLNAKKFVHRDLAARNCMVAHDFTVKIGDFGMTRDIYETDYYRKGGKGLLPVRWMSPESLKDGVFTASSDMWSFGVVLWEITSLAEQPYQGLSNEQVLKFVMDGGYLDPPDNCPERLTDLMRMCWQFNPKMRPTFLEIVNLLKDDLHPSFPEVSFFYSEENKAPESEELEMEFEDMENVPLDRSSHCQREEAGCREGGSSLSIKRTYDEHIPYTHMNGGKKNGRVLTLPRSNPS

Cytochrome P450 2E1 = Cytochrome P450 2E1 (Homo sapiens, UniProt P05181); conditions: bti-tn-5b1-4; further: in other assays of this panel Not Active means under 50% inhibition at 10 µM
Sequence of Cytochrome P450 2E1 (P05181 whole entry): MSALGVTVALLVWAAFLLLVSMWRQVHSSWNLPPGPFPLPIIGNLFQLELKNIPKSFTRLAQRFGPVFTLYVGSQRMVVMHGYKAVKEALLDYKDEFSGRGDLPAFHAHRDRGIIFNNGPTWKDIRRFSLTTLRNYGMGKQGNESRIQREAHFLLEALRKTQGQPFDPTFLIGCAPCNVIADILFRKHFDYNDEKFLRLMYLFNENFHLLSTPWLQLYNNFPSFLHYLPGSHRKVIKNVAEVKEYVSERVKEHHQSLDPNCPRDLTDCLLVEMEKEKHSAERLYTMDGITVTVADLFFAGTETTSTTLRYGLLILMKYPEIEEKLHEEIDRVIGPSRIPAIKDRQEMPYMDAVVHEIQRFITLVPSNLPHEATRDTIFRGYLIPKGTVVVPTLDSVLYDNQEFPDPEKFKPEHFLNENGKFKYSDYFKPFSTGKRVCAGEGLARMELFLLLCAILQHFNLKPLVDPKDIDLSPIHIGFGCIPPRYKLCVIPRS

[2] = DRUGMATRIX: Leukotriene, BLT (LTB4) radioligand binding (ligand: [3H]LTB4); type: cell membranes, Membrane; conditions: u-937; Not Active = under 50% inhibition at 10 µM
[3] = DRUGMATRIX: Glutamate, NMDA, Phencyclidine radioligand binding (ligand: [3H] TCP); type: cell membranes, Rattus norvegicus, Wistar, Cerebral cortex, Membrane; conditions: Not Active = under 50% inhibition at 10 µM
[4] = DRUGMATRIX: Phosphodiesterase PDE3 enzyme inhibition (substrate: [3H]cAMP + cAMP); type: tissue-based, Homo sapiens; conditions: platelet; Not Active = under 50% inhibition at 10 µM
[5] = DRUGMATRIX: GABAA, Flunitrazepam, Central radioligand binding (ligand: [3H] Flunitrazepam); type: cell membranes, Rattus norvegicus, Wistar, Brain, Membrane; conditions: Not Active = under 50% inhibition at 10 µM
[6] = target: T2, Muscarinic acetylcholine receptor M2 (Homo sapiens, UniProt P08172); type: cell membranes, CHO-K1, Membrane; conditions: cho-k1; further: in other assays of this panel Not Active means under 50% inhibition at 10 µM
T2 sequence (P08172 whole entry): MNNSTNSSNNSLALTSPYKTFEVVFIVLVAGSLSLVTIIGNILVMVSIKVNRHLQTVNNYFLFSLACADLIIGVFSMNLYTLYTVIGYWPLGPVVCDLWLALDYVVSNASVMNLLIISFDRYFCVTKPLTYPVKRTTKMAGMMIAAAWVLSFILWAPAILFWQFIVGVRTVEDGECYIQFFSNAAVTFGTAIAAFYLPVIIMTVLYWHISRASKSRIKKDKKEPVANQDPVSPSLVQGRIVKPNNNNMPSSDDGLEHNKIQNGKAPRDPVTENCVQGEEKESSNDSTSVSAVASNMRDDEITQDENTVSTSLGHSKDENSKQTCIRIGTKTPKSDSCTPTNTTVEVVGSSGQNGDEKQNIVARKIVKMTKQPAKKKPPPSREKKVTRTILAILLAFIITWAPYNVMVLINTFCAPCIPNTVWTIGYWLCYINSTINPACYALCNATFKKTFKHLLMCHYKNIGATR

Cytochrome P450 2A6 = target: T3, Cytochrome P450 2A6 (Homo sapiens, UniProt P11509); conditions: bti-tn-5b1-4; further: in other assays of this panel Not Active means under 50% inhibition at 10 µM
T3 sequence (P11509 whole entry): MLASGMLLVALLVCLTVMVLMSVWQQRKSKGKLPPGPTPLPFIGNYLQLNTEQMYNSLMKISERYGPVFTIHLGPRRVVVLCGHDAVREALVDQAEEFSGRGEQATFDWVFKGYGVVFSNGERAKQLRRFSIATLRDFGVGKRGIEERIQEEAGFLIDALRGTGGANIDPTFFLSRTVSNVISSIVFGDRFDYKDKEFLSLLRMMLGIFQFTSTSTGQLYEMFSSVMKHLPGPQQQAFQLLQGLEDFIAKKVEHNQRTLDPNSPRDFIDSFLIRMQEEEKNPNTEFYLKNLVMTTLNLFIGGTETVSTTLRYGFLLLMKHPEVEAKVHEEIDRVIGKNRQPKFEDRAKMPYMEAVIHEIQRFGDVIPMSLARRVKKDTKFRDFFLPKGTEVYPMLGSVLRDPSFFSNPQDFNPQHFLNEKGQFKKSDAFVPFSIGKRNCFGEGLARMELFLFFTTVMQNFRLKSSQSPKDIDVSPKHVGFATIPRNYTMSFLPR

C[C@]1(Cn2ccnn2)[C@H](C(=O)O)N2C(=O)C[C@H]2S1(=O)=O [TAZOBACTAM]
Not Active: IC50 [1] | IC50 (Mu-type opioid receptor) | IC50 (Melanocortin receptor 4) | IC50 (Insulin receptor) | IC50 (Cytochrome P450 2E1) | Ki (Cytochrome P450 2E1) | IC50 [2] | Ki [2] | IC50 [3] | Ki [3] | IC50 [4] | Ki [4] | IC50 [5] | Ki [5] | IC50 [6] | IC50 (Cytochrome P450 2A6) | Ki (Cytochrome P450 2A6)

CN1C(C(=O)Nc2ccccn2)=C(O)c2sccc2S1(=O)=O [TENOXICAM]
Not Active: IC50 [1] | IC50 (Mu-type opioid receptor) | IC50 (Melanocortin receptor 4) | IC50 (Insulin receptor) | IC50 (Cytochrome P450 2E1) | Ki (Cytochrome P450 2E1) | IC50 [2] | Ki [2] | IC50 [3] | Ki [3] | IC50 [4] | Ki [4] | IC50 [5] | Ki [5] | IC50 [6] | IC50 (Cytochrome P450 2A6) | Ki (Cytochrome P450 2A6)

CC(C)(C)c1ccc(C(O)CCCN2CCC(C(O)(c3ccccc3)c3ccccc3)CC2)cc1 (stereo not drawn) [TERFENADINE]
Not Active: IC50 [1] | IC50 (Mu-type opioid receptor) | IC50 (Melanocortin receptor 4) | IC50 (Insulin receptor) | IC50 (Cytochrome P450 2E1) | Ki (Cytochrome P450 2E1) | IC50 [2] | Ki [2] | IC50 [3] | Ki [3] | IC50 [4] | Ki [4] | IC50 [5] | Ki [5] | IC50 [6] | IC50 (Cytochrome P450 2A6) | Ki (Cytochrome P450 2A6)

O=C1CCC(N2C(=O)c3ccccc3C2=O)C(=O)N1 (stereo not drawn) [THALIDOMIDE]
Not Active: IC50 [1] | IC50 (Mu-type opioid receptor) | IC50 (Melanocortin receptor 4) | IC50 (Insulin receptor) | IC50 (Cytochrome P450 2E1) | Ki (Cytochrome P450 2E1) | IC50 [2] | Ki [2] | IC50 [3] | Ki [3] | IC50 [4] | Ki [4] | IC50 [5] | Ki [5] | IC50 [6] | IC50 (Cytochrome P450 2A6) | Ki (Cytochrome P450 2A6)

Cc1cccc(Nc2ccncc2S(=O)(=O)NC(=O)NC(C)C)c1 [TORSEMIDE]
Not Active: IC50 [1] | IC50 (Mu-type opioid receptor) | IC50 (Melanocortin receptor 4) | IC50 (Insulin receptor) | IC50 (Cytochrome P450 2E1) | Ki (Cytochrome P450 2E1) | IC50 [2] | Ki [2] | IC50 [3] | Ki [3] | IC50 [4] | Ki [4] | IC50 [5] | Ki [5] | IC50 [6] | IC50 (Cytochrome P450 2A6) | Ki (Cytochrome P450 2A6)

CC(C)C[C@H](NC(=O)[C@@H](O)[C@H](N)Cc1ccccc1)C(=O)O [UBENIMEX]
Not Active: IC50 [1] | IC50 (Mu-type opioid receptor) | IC50 (Melanocortin receptor 4) | IC50 (Insulin receptor) | IC50 (Cytochrome P450 2E1) | Ki (Cytochrome P450 2E1) | IC50 [2] | Ki [2] | IC50 [3] | Ki [3] | IC50 [4] | Ki [4] | IC50 [5] | Ki [5] | IC50 [6] | IC50 (Cytochrome P450 2A6) | Ki (Cytochrome P450 2A6)

Cc1onc(-c2ccccc2)c1-c1ccc(S(N)(=O)=O)cc1 [VALDECOXIB]
Not Active: IC50 [1] | IC50 (Mu-type opioid receptor) | IC50 (Melanocortin receptor 4) | IC50 (Insulin receptor) | IC50 (Cytochrome P450 2E1) | Ki (Cytochrome P450 2E1) | IC50 [2] | Ki [2] | IC50 [3] | Ki [3] | IC50 [4] | Ki [4] | IC50 [5] | Ki [5] | IC50 [6] | IC50 (Cytochrome P450 2A6) | Ki (Cytochrome P450 2A6)

CC[C@]1(O)C[C@@H]2CN(CCc3c([nH]c4ccccc34)[C@@](C(=O)OC)(c3cc4c(cc3OC)N(C)[C@H]3[C@@](O)(C(=O)OC)[C@H](OC(C)=O)[C@]5(CC)C=CCN6CC[C@]43[C@@H]65)C2)C1 [VINBLASTINE]
Not Active: IC50 [1] | IC50 (Mu-type opioid receptor) | IC50 (Melanocortin receptor 4) | IC50 (Insulin receptor) | IC50 (Cytochrome P450 2E1) | Ki (Cytochrome P450 2E1) | IC50 [2] | Ki [2] | IC50 [3] | Ki [3] | IC50 [4] | Ki [4] | IC50 [5] | Ki [5] | IC50 [6] | IC50 (Cytochrome P450 2A6) | Ki (Cytochrome P450 2A6)

C[C@@H](N)[C@H]1CC[C@H](C(=O)Nc2ccncc2)CC1 [Y-27632]
Not Active: IC50 [1] | IC50 (Mu-type opioid receptor) | IC50 (Melanocortin receptor 4) | IC50 (Insulin receptor) | IC50 (Cytochrome P450 2E1) | Ki (Cytochrome P450 2E1) | IC50 [2] | Ki [2] | IC50 [3] | Ki [3] | IC50 [4] | Ki [4] | IC50 [5] | Ki [5] | IC50 [6] | IC50 (Cytochrome P450 2A6) | Ki (Cytochrome P450 2A6)
